# Test results taken from patent US20230190887A1, “TARGETING G3BP AGGREGATION TO PREVENT NEURODEGENERATION” (priority 2019, published 2023).
# Tested on: NMJs in co-cultures with puromycin-resistant muscles
# Test: NMJ function after local protein synthesis inhibition
# Type: cell-based, mouse
# Conditions: Puromycin 100 μg/mL exclusively in NMJ compartment, 16 h
# Description: Analysis of NMJ function following protein synthesis inhibition with puromycin was performed by co-culturing WT MNs with primary muscles transfected with empty […]-mCherry vectors expressing PAC gene for puromycin resistance. After 12 days in co-culture, once cultures matured and NMJ were formed, Puromycin (100 μg/mL) was added exclusively to the distal (NMJ) compartment for 16 h. The proximal compartment was kept with higher volume of medium for allowing puromycin to act only locally within the NMJ compartment. After 16 h, cultures were labeled with OGB, and the calcium activity of axons and muscles was recorded. Analysis of the percent of muscles with calcium transients in co-culture, was performed on muscles with at least one overlapping axon. Only muscles that expressed mCherry (as a reporter for the expression of PAC) were used for this analysis. OGB lyophilized stock (Life technologies) was resuspended with 20% (w/v) Pluronic acid for a stock concentration of 3 mM Stock was diluted 1:1,000 in the appropriate medium. OGB was incubated with cultures for […] in 37° C., 5% CO2 incubator, and then washed 3 times with culture medium prior imaging. Calcium transients in axons and muscles were recorded in a spinning disk confocal microscope equipped with an EMCCD camera with ×40 oil objective using 488 nm laser. Image sequences of 1,000 frames were acquired at frame rate of 25 FPS. […]
smiles,measurement,value
"COc1ccc(C[C@H](N)C(=O)N[C@H]2[C@@H](O)[C@H](n3cnc4c(N(C)C)ncnc43)O[C@@H]2CO)cc1 [puromycin, Puromycin]","active (innervated and contracting) muscles, calcium transients",pronounced decrease in active muscles
